The source of these data is ChEMBL document CHEMBL1145692, “New Type of Mono-tetrahydrofuran Ring Acetogenins from Goniothalamus donnaiensis” (J Nat Prod, 1997).

The test system of test [1] is KB. Kind of test: Cytotoxicity against human KB cells. It counts as functional, cell-based.
The test system of test [2] is HCT-8. Kind of test: Cytotoxicity against human HCT8 cells. The test is classed as functional, cell-based.
Test [3] relates to KB. Kind of test: Cytotoxicity against human KB cells at 10 ug/ml. The test is classed as functional.

Broadly, the IC50 is the point on the concentration scale where inhibition reaches its midpoint. A high value points to lower potency. Take `CCCCCCCCCCCC[C@@H](O)[C@H]1CC[C@H]([C@H](O)CCCCCCCCCC[C@@H](O)CC2=CC(C)(O)OC2=O)O1` (mixture of isomers): the half-maximal inhibitory concentration (IC50) was < 1 µg/mL in test [1] and < 10 µg/mL in test [2].

Broadly, the inhibition is the drop in the measured response relative to a control, in per cent. Read a low inhibition as a response near the control. Regarding `CCCCCCCCCCCCCC[C@H](O)[C@@H](O)CC[C@H](O)[C@@H]1CC[C@@H](CCCCC[C@@H](O)CC2=CC(C)(O)OC2=O)O1` (mixture of isomers) [DONNAIENIN B/34-EPI-DONNAIENIN B], in test [3], the inhibition at 10 µg/mL came to 53.8%.
